Results from ChEMBL document CHEMBL5291721, “A preclinical secondary pharmacology resource illuminates target-adverse drug reaction associations of marketed drugs” (Nat Commun, 2023).

Key:
[1] = target: T1, Alpha-1A adrenergic receptor (Homo sapiens, UniProt P35348)
T1 sequence (P35348 whole entry): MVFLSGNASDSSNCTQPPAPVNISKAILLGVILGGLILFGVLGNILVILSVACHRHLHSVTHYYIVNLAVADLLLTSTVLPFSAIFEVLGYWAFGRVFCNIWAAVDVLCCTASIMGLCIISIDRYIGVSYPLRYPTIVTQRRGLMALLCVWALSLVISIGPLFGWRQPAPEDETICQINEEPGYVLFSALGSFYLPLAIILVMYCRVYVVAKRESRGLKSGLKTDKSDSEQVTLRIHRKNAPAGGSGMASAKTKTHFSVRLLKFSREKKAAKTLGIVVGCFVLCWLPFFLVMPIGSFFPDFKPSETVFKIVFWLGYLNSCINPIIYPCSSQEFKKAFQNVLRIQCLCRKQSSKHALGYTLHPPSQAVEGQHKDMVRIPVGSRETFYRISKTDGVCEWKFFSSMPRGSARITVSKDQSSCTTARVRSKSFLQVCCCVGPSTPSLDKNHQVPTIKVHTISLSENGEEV

Mu-type opioid receptor = Mu-type opioid receptor (Homo sapiens, UniProt P35372)
[2] = target: T2, 5-hydroxytryptamine receptor 2A (Homo sapiens, UniProt P28223); assay type: functional, cell-based
[3] = target: T2, 5-hydroxytryptamine receptor 2A; assay type: functional, cell-based; remark: listed apart in the source
[4] = target: T1, Alpha-1A adrenergic receptor; assay type: functional, cell-based
[5] = target: Beta-2 adrenergic receptor (Homo sapiens, UniProt P07550); assay type: functional, cell-based
[6] = target: Voltage-dependent L-type calcium channel subunit alpha-1C (Rattus norvegicus, UniProt P22002); assay type: functional
Cannabinoid receptor 1 [7] = target: T3, Cannabinoid receptor 1 (Homo sapiens, UniProt P21554)
D(1A) dopamine receptor = D(1A) dopamine receptor (Homo sapiens, UniProt P21728); assay type: functional, cell-based
Histamine H2 receptor = Histamine H2 receptor (Homo sapiens, UniProt P25021); assay type: functional, cell-based
Melanocortin receptor 4 = Melanocortin receptor 4 (Homo sapiens, UniProt P32245)
Glucocorticoid receptor = target: T4, Glucocorticoid receptor (Homo sapiens, UniProt P04150)
T4 sequence (P04150 whole entry): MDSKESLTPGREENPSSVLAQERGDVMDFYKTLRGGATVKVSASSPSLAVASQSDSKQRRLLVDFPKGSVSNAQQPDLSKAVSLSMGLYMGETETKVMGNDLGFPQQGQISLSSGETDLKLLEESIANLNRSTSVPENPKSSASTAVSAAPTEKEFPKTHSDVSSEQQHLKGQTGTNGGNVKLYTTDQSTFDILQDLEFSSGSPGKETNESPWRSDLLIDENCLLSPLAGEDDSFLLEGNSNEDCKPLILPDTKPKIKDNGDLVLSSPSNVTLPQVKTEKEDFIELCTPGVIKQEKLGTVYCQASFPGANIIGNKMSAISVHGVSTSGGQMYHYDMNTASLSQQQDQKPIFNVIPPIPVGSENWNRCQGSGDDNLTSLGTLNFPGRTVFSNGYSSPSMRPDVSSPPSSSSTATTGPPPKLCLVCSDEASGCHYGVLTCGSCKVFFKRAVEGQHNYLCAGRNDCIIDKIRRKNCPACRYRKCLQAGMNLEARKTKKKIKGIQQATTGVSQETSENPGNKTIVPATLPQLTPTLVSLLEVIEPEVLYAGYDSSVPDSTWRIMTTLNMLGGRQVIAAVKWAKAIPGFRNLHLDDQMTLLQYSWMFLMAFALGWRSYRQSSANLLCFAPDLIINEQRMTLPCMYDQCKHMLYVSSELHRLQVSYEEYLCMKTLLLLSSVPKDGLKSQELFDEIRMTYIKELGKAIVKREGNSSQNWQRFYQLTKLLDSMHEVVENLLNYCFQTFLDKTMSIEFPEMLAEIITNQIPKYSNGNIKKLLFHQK

Histamine H3 receptor = Histamine H3 receptor (Homo sapiens, UniProt Q9Y5N1)
[8] = target: T5, 5-hydroxytryptamine receptor 1A (Homo sapiens, UniProt P08908); assay type: functional, cell-based
T5 sequence (P08908 whole entry): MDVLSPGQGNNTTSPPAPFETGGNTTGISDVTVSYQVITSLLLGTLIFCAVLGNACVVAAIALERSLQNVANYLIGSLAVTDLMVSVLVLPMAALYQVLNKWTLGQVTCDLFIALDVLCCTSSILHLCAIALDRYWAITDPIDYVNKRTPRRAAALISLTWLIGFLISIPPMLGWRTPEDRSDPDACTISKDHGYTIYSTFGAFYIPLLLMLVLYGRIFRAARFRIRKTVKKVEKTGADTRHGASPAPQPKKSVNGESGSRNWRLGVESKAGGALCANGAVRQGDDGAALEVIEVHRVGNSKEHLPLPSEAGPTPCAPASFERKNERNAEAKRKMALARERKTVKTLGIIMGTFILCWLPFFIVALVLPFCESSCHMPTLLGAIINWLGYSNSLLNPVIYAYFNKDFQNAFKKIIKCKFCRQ

Vasopressin V1a receptor = Vasopressin V1a receptor (Homo sapiens, UniProt P37288)
Endothelin-1 receptor = target: T6, Endothelin-1 receptor (Homo sapiens, UniProt P25101)
T6 sequence (P25101 whole entry): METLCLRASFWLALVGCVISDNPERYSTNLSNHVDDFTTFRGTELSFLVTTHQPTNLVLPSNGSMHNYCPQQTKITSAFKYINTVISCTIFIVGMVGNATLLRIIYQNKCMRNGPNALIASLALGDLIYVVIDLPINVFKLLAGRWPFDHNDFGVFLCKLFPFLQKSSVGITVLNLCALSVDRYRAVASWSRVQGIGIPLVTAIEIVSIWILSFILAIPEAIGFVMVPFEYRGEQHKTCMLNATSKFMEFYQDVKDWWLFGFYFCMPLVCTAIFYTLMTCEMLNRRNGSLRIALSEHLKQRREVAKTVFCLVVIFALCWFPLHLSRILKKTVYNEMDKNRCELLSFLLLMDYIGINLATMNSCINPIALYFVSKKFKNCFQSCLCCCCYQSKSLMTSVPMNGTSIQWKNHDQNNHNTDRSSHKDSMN

Cannabinoid receptor 1 [9] = target: T3, Cannabinoid receptor 1; assay type: functional, cell-based
Cannabinoid receptor 1 [10] = target: T3, Cannabinoid receptor 1; assay type: functional, cell-based; remark: listed apart in the source
Further: assay procedure not described here.

Chain of Melanocortin receptor 4 (P32245 whole entry): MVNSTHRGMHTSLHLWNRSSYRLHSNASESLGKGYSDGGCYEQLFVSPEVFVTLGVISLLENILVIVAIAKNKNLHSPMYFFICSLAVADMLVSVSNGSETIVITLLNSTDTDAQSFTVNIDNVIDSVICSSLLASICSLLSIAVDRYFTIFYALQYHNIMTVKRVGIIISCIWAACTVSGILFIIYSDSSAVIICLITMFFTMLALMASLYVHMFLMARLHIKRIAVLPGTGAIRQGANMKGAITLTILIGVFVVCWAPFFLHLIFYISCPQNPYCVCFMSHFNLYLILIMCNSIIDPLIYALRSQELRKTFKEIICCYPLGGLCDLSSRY
Chain of Histamine H2 receptor (P25021 whole entry): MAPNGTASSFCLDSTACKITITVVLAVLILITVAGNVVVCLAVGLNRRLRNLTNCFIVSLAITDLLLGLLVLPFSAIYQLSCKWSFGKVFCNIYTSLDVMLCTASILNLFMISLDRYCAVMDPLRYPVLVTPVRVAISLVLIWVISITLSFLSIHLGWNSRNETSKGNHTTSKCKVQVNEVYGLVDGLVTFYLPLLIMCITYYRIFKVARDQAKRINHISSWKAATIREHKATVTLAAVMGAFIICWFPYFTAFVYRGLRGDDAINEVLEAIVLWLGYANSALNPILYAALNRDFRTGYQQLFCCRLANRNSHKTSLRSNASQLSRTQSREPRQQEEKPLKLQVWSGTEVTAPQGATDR
Chain of D(1A) dopamine receptor (P21728 whole entry): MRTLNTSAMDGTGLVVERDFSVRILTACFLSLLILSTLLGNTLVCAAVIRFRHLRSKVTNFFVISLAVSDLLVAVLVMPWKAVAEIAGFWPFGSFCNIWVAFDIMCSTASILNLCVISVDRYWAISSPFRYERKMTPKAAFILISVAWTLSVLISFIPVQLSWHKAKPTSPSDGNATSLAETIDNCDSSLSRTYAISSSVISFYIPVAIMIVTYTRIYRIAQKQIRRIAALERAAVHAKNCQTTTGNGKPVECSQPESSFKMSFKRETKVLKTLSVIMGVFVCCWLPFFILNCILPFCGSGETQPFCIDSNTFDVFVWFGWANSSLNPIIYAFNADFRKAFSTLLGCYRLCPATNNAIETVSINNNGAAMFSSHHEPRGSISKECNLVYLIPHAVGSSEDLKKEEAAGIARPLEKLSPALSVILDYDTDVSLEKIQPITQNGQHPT
Chain of Beta-2 adrenergic receptor (P07550 whole entry): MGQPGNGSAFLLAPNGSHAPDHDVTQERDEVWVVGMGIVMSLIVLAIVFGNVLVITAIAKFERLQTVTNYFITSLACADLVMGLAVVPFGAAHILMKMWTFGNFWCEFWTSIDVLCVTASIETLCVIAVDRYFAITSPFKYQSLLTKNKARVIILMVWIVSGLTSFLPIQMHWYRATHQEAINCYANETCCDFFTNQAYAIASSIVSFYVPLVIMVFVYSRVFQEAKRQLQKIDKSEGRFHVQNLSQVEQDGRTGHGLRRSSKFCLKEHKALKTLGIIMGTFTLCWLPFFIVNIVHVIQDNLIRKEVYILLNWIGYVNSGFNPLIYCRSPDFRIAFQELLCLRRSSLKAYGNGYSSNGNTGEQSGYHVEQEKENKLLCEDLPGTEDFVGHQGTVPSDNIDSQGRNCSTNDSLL
Chain of Voltage-dependent L-type calcium channel subunit alpha-1C (P22002 whole entry): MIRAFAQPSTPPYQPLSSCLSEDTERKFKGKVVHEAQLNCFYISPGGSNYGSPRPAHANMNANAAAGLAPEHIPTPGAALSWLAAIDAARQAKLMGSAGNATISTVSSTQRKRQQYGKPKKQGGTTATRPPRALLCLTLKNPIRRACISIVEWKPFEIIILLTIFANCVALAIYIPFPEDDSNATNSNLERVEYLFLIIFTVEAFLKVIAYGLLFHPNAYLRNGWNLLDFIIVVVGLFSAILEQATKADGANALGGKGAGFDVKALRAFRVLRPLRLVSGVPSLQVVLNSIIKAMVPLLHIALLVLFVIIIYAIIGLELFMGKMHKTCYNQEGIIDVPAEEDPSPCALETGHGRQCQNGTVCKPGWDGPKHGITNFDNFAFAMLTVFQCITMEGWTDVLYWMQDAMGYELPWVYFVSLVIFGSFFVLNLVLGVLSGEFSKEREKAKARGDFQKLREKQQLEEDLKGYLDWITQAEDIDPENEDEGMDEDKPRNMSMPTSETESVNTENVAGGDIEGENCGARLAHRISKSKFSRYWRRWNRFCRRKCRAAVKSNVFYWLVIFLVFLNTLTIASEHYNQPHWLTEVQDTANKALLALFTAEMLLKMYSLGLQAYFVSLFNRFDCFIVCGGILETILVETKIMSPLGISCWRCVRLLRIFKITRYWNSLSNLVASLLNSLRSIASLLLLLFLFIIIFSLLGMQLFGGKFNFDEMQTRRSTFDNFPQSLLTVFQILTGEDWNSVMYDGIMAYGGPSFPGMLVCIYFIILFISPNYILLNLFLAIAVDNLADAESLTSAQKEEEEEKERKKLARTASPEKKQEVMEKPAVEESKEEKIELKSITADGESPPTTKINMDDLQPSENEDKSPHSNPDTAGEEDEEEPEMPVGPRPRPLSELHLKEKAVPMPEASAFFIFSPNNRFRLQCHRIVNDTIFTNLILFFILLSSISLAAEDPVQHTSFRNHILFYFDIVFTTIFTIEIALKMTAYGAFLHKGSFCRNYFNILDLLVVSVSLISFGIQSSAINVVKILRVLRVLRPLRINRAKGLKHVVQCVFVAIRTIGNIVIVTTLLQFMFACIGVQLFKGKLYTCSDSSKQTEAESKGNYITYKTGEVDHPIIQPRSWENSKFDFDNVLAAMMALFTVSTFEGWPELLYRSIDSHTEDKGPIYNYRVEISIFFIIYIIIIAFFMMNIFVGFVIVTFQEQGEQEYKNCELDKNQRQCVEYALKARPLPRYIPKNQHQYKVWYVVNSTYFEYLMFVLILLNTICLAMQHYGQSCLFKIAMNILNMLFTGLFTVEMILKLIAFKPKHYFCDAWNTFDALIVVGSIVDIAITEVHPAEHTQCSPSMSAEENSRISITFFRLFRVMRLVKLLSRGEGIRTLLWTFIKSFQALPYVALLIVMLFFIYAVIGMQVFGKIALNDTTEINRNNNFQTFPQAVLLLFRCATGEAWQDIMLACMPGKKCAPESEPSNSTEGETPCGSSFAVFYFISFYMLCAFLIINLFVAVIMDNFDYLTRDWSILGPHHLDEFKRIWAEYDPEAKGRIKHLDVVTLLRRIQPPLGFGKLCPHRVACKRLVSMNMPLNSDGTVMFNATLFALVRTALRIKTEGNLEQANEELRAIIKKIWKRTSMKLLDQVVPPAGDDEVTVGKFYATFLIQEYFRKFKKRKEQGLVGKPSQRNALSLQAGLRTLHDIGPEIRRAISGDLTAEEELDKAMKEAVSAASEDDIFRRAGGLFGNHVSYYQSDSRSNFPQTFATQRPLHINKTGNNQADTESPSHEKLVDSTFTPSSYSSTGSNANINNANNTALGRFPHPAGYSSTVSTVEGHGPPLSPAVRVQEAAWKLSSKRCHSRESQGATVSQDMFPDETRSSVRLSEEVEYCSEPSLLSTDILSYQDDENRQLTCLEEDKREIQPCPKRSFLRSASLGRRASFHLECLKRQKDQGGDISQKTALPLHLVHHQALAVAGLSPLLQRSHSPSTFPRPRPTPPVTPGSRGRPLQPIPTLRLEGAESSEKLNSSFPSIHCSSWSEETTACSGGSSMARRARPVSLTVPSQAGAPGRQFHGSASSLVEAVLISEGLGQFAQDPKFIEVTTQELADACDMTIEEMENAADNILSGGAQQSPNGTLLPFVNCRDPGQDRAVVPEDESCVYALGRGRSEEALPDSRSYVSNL
T3 sequence (P21554 whole entry): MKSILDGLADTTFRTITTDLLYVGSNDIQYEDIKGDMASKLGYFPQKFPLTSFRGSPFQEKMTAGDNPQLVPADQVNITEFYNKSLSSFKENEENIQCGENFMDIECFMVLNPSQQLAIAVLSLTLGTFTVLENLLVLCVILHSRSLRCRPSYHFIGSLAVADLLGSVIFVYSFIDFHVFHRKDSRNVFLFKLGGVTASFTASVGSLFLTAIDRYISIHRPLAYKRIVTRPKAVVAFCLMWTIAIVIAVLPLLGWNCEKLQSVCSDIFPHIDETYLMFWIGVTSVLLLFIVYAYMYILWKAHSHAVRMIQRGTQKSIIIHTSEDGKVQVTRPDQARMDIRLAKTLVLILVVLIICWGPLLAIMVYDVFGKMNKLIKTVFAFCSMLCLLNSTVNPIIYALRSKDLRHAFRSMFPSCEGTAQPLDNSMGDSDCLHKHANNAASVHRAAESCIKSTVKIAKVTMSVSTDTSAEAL
Chain of Histamine H3 receptor (Q9Y5N1 whole entry): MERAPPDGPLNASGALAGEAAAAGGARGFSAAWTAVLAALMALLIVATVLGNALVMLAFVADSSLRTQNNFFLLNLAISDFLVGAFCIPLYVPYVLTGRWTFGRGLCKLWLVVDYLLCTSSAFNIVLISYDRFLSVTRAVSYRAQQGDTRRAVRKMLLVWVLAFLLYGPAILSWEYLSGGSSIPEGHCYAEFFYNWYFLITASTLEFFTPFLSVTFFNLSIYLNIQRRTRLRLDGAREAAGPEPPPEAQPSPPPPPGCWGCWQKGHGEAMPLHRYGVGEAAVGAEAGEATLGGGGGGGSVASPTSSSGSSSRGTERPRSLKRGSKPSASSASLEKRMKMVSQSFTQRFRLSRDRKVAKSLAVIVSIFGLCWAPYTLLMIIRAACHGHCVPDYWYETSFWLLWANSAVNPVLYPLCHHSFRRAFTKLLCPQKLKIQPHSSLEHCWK
Chain of Mu-type opioid receptor (P35372 whole entry): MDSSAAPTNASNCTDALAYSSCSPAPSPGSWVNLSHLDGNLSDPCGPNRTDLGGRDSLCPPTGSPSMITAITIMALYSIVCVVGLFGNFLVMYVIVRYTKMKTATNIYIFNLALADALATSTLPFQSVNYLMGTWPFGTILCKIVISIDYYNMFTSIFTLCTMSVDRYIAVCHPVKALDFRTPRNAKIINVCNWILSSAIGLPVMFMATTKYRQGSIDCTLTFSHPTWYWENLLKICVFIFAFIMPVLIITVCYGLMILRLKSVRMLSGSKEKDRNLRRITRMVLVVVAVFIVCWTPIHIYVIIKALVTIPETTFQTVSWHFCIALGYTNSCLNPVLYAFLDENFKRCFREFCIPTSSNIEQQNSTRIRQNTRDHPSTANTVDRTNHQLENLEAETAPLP

Row | Structure (SMILES) | AC50 [1] | AC50 (Mu-type opioid receptor) | AC50 [2] | AC50 [3] | AC50 [4] | AC50 [5] | AC50 [6] | AC50 (Cannabinoid receptor 1 [7]) | AC50 (D(1A) dopamine receptor) | AC50 (Histamine H2 receptor) | AC50 (Melanocortin receptor 4) | AC50 (Glucocorticoid receptor) | AC50 (Histamine H3 receptor) | AC50 [8] | AC50 (Vasopressin V1a receptor) | AC50 (Endothelin-1 receptor) | AC50 (Cannabinoid receptor 1 [9]) | AC50 (Cannabinoid receptor 1 [10])
1 | Cn1cnc2c(F)c(Nc3ccc(Br)cc3Cl)c(C(=O)NOCCO)cc21 [SELUMETINIB] | > 10 µM | > 30 µM | – | – | – | – | – | – | – | – | – | – | – | – | – | – | – | –
2 | CN(C(=O)c1c(O)c2ccccc2n(C)c1=O)c1ccccc1 [ROQUINIMEX] | – | – | > 30 µM | > 30 µM | > 30 µM | – | – | – | – | – | – | – | – | – | – | – | – | –
3 | Cc1ncc2n1-c1ccc(Cl)cc1C(c1ccccc1F)=NC2 [MIDAZOLAM] | > 10 µM | > 30 µM | – | – | > 30 µM | > 30 µM | > 10 µM | > 10 µM | > 30 µM | > 30 µM | > 30 µM | > 30 µM | > 10 µM | – | – | – | – | –
4 | C/C(=C\C(=O)OCCCCCCCCC(=O)O)C[C@@H]1OC[C@H](C[C@@H]2O[C@H]2[C@@H](C)[C@H](C)O)[C@@H](O)[C@H]1O [MUPIROCIN] | > 10 µM | > 30 µM | – | – | – | – | > 10 µM | > 10 µM | > 10 µM | > 10 µM | > 10 µM | > 10 µM | > 10 µM | > 10 µM | – | – | – | –
5 | Cn1c(=O)cc(N2CCC[C@@H](N)C2)n(Cc2ccccc2C#N)c1=O [ALOGLIPTIN] | – | 8.8 µM | – | – | – | – | > 10 µM | > 10 µM | – | – | > 30 µM | > 30 µM | > 10 µM | – | > 10 µM | > 30 µM | – | –
6 | CCN(CC)CCN1C(=O)CN=C(c2ccccc2F)c2cc(Cl)ccc21 [FLURAZEPAM] | > 10 µM | > 30 µM | – | – | > 30 µM | > 30 µM | > 10 µM | > 10 µM | > 30 µM | > 30 µM | > 30 µM | > 30 µM | > 10 µM | – | – | – | – | –
7 | CC(=O)OCC(=O)[C@@]1(O)[C@H](C)C[C@H]2[C@@H]3CCC4=CC(=O)C=C[C@]4(C)[C@@]3(F)[C@@H](O)C[C@@]21C [DEXAMETHASONE ACETATE] | > 10 µM | > 30 µM | – | – | > 30 µM | – | > 10 µM | – | > 10 µM | > 10 µM | > 30 µM | – | > 10 µM | > 10 µM | > 30 µM | > 30 µM | > 30 µM | 20 µM
8 | CCN(CC)CCNC(=O)c1cc(S(C)(=O)=O)ccc1OC [TIAPRIDE] | – | – | – | – | > 30 µM | – | > 30 µM | – | > 30 µM | > 30 µM | – | > 30 µM | > 30 µM | > 30 µM | > 30 µM | > 30 µM | > 30 µM | > 30 µM
9 | CCN1CCCC1CNC(=O)c1cc(S(=O)(=O)CC)c(N)cc1OC (centres undefined) [AMISULPRIDE] | > 30 µM | – | – | – | – | > 30 µM | – | – | > 30 µM | > 30 µM | – | > 30 µM | 12 µM | > 30 µM | – | > 30 µM | > 30 µM | > 30 µM
